This note sets out measurements from patent US8664271B2, “Stabilized leukotriene B4 (LTB4) agent pharmaceutical formulation” (LTB4 Sweden AB, priority 2004, dated 2014).

Data set [1] can be described thus: Effect of glycine buffer strength and pH on stability of aqueous LTB4 Na salt solutions. In kind it is physicochemical. The settings on record: 5 months at 40° C.; for level of impurities: 35 μg/ml. As to the method:
Aqueous isotonic LTB4 Na salt solutions at the concentration of 35 and 350 μg/ml in phosphate buffered saline ([…]) containing 0.01% EDTA and various concentrations of glycine (from 0.01 mM to 10 mM) were obtained by dilution of a 25 mg/ml solution of LTB4 Na salt (Example 2). Solutions of LTB4 Na salt at 35 and 350 μg/ml at the 4 different glycine concentrations were dispensed in 2 ml vials for storage under air in the dark at 40±5° C. for 5 months prior to reverse phase HPLC analysis of LTB4 and impurities as described in Example 1.

A short description of data set [2]: Forced degradation of aqueous LTB4 sodium salt solutions at increasing sodium hydroxide concentrations. In kind it is physicochemical. The note with it: for impurity level: five weeks at 40° C.; for pH after five weeks of storage / final pH (after five weeks): 40° C. The protocol: An ethanolic solution of LTB4 (acid form) obtained from Cascade Biochem (UK) was neutralized by the addition of 1 equivalent of sodium hydroxide to generate LTB4 sodium salt. Aliquots of the ethanolic solution of the sodium salt of LTB4 were dispensed into 2-ml vials (to obtain 2 mg of LTB4 per vial) and the solvent was evaporated to dryness under a stream of nitrogen. The residues in vials were dissolved with 0.9% sodium chloride (NaCl) (vial 1), 0.9% NaCl in 0.1 mN NaOH (vial 2), 0.9% NaCl in 1 mN NaOH (vial 3), 0.9% NaCl in 10 mN NaOH (vial 4), 0.3% NaCl in 0.1N NaOH (vial 5) and in 1N NaOH (vial 6). Aliquots of the solutions were taken for immediate analysis (to) and the remaining solutions of LTB4 sodium salt at 2 mg/ml were stored under air, in the dark at 40±5° C. for five weeks, prior to reverse phase HPLC analysis of LTB4 and impurities as described in example 1.

Some results are limits rather than exact numbers.

Regarding `CCCCC/C=C\C[C@@H](O)/C=C/C=C/C=C\[C@@H](O)CCCC(=O)[O-].[Na+]` [LTB4 Na salt], the level of impurities in data set [1] (pH 7.5, 10 mM glycine, data not shown) was 20%; in data set [1] (pH 9.5, 10 mM glycine), 6.5%. Also, in data set [1] (glycine 0.01 mM to 10 mM, pH 9.5, 35 μg/ml), the “impact of glycine buffer concentration on stability” value is given as “little impact”. Besides, the impurity level in data set [2] (vial 1: 2 mg/ml in 0.9% NaCl) was 100%; in data set [2] (vial 2: 2 mg/ml in 0.9% NaCl in 0.1 mN NaOH) it was 100%; in data set [2] (vial 3: 2 mg/ml in 0.9% NaCl in 1 mN NaOH), 5.34 % of AUC 270 nm; in data set [2] (vial 4: 2 mg/ml in 0.9% NaCl in 10 mN NaOH), 3.46 % of AUC 270 nm; in data set [2] (vial 5: 2 mg/ml in 0.3% NaCl in 0.1N NaOH), 4.38 % of AUC 270 nm; in data set [2] (vial 6: 2 mg/ml in 1N NaOH), 5.77 % of AUC 270 nm. The “pH after five weeks of storage” value in data set [2] (vial 1: 0.9% NaCl) and in data set [2] (vial 2: 0.9% NaCl in 0.1 mN NaOH) was less than 5 throughout. The “final pH (after five weeks)” value in data set [2] (vial 3: 0.9% NaCl in 1 mN NaOH) stood at 8.02; in data set [2] (vial 4: 0.9% NaCl in 10 mN NaOH), 9.83; in data set [2] (vial 5: 0.3% NaCl in 0.1N NaOH), 12.50; in data set [2] (vial 6: 1N NaOH), 13.03.
